Data on five compounds can be found in US20140025310A1, “METHOD FOR DETERMINING THE EFFICACY OF A COMBINATION THERAPY” (priority 2009, published 2014).

The test system of one test is patient's virus. Nature of the test: Susceptibility score of the patient's virus to a drug (% activity from clinical cut-off models). On the set-up: species or system HIV-1. The settings on record: 1 = fully sensitive, 0 = fully resistant. From the text:
Interpretation algorithms provide a resistance call for each available HIV drug. Often this is a three way classification i.e. sensitive (a score of 1), intermediate resistant (a score of 0.5) or resistant (a score of 0). For VircoType (WO 01/79540) the interpretation is for instance based on a statistical model, leading to the definition of so called clinical cut-offs (CCO), that predicts the % activity of a drug (i.e. the susceptibility score) as a function of fold change at the start of the regimen. The % activity left was calculated by dividing the predicted viral load change for the patients' virus with a certain resistance profile by the predicted viral load for a wild-type virus. This is an ordinal value that varies between 0% (or a score of 0) and 100% (or a score of 1). Based on these values, clinical cutoffs (phenotypic threshold values) were derived to classify a virus sample into maximal response, reduced response and minimal response as described in WO 2005/086061.
(§1) Therefore, statistical models were applied to handle these differences. […] E.g.

In the next test the test system is HIV-1. Conditions: difference in viral load response (log scale) vs ritonavir boosted lopinavir after 8 weeks of stable treatment; double robust estimation.
Description: as §1

Turning to `O=c1[nH]cnc2c1ncn2[C@H]1CC[C@@H](CO)O1` [DDI], in the test with patient's virus (Patient 1 virus), the susceptibility score was 1.

Take `O=C1Nc2ccc(Cl)cc2[C@@](C#CC2CC2)(C(F)(F)F)O1` [EFV]: the susceptibility score entry in the test with patient's virus (Patient 2 virus) is reported as “fully active”.

Turning to `CC(C)OC(=O)OCOP(=O)(CO[C@H](C)Cn1cnc2c(N)ncnc21)OCOC(=O)OC(C)C.O=C(O)/C=C/C(=O)O` [TDF], the susceptibility score in the test on patient's virus (Patient 1 virus) and in the test with patient's virus (Patient 2 virus) was 1 in each case.

For atazanavir [ATV/r], the “Weight (drug weight)” value in the test on HIV-1 was −0.02. Moreover, the susceptibility score in the test on patient's virus (Patient 2 virus) is listed as 1.

In the case of lopinavir [LPV/r], the “Weight (drug weight)” value in the test on HIV-1 is recorded as 0. The compound also showed a susceptibility score in the test with patient's virus (Patient 1 virus) of 0.24.
